# In patent US9718813B2, “Imidazolin-5-one derivative useful as FASN inhibitors for the treatment of cancer” (Janssen Pharmaceutica, NV, priority 2013, dated 2017):
# Columns and labels:
# [1] = biological target: FASN Keto-reductase Domain (hFASN enzyme, full length) (Homo sapiens (Human), UniProt P49327); assay: Fatty Acid Synthase Keto-reductase Domain (FASN KR) Inhibition; type: biochemical; settings: NADPH oxidation at 340 nm, ethyl acetoacetate substrate
# Method: After 20 minutes incubation at room temperature the plate was measured again (T2).
# The decrease in absorbance was calculated as (Absorbance before incubation T1)−(Absorbance following incubation T2).
# Raw data generated by the instrument were normalized to % Controlmin values, which were calculated as: % Controlmin=100*(x−mLC)/(mHC−mLC)
# where mLC and mHC were the means of the low control wells and high control wells on the plate, after manual exclusion of outliers. A plot of Controlmin versus test compound concentration was fitted to a 4-parameter logistic curve using a non-linear least squares regression method.
# A2780 ovarian cells = assay: A2780 Ovarian Cell Proliferation Assay in Lipid Reduced Medium, with Palmitate; type: cell-based; settings: Homo sapiens, 10% lipid-reduced serum, 25 μM palmitate, 96 h, MTT, read-out: pIC50 With Palmitate (converted)
# Method: The biological assays described below correspond to comparative assays for ovarian cell proliferation.
# 2500 cells were seeded in a 96-well clear well plate in 200 μL RPM11640 with 10% Fetal Calf Serum (Hyclone), and incubated at 37° C., 5% CO2. Blanks were wells without cells. The next day the culture medium was aspirated and replaced by 160 μL culture medium with 10% Lipid-Reduced Serum (LRS, Hyclone). […] After 96 h incubation, an MTT assay was performed.
# [2] = biological target: hFASN enzyme (full length) (Homo sapiens (Human), UniProt P49327); assay: Fatty Acid Synthase (FASN) Inhibition Scintillation Proximity Assay; type: biochemical; settings: 3H-acetyl-CoA and malonyl-CoA substrates, SPA, mean if tested more than once
# Chain of hFASN enzyme (full length) (P49327 whole entry): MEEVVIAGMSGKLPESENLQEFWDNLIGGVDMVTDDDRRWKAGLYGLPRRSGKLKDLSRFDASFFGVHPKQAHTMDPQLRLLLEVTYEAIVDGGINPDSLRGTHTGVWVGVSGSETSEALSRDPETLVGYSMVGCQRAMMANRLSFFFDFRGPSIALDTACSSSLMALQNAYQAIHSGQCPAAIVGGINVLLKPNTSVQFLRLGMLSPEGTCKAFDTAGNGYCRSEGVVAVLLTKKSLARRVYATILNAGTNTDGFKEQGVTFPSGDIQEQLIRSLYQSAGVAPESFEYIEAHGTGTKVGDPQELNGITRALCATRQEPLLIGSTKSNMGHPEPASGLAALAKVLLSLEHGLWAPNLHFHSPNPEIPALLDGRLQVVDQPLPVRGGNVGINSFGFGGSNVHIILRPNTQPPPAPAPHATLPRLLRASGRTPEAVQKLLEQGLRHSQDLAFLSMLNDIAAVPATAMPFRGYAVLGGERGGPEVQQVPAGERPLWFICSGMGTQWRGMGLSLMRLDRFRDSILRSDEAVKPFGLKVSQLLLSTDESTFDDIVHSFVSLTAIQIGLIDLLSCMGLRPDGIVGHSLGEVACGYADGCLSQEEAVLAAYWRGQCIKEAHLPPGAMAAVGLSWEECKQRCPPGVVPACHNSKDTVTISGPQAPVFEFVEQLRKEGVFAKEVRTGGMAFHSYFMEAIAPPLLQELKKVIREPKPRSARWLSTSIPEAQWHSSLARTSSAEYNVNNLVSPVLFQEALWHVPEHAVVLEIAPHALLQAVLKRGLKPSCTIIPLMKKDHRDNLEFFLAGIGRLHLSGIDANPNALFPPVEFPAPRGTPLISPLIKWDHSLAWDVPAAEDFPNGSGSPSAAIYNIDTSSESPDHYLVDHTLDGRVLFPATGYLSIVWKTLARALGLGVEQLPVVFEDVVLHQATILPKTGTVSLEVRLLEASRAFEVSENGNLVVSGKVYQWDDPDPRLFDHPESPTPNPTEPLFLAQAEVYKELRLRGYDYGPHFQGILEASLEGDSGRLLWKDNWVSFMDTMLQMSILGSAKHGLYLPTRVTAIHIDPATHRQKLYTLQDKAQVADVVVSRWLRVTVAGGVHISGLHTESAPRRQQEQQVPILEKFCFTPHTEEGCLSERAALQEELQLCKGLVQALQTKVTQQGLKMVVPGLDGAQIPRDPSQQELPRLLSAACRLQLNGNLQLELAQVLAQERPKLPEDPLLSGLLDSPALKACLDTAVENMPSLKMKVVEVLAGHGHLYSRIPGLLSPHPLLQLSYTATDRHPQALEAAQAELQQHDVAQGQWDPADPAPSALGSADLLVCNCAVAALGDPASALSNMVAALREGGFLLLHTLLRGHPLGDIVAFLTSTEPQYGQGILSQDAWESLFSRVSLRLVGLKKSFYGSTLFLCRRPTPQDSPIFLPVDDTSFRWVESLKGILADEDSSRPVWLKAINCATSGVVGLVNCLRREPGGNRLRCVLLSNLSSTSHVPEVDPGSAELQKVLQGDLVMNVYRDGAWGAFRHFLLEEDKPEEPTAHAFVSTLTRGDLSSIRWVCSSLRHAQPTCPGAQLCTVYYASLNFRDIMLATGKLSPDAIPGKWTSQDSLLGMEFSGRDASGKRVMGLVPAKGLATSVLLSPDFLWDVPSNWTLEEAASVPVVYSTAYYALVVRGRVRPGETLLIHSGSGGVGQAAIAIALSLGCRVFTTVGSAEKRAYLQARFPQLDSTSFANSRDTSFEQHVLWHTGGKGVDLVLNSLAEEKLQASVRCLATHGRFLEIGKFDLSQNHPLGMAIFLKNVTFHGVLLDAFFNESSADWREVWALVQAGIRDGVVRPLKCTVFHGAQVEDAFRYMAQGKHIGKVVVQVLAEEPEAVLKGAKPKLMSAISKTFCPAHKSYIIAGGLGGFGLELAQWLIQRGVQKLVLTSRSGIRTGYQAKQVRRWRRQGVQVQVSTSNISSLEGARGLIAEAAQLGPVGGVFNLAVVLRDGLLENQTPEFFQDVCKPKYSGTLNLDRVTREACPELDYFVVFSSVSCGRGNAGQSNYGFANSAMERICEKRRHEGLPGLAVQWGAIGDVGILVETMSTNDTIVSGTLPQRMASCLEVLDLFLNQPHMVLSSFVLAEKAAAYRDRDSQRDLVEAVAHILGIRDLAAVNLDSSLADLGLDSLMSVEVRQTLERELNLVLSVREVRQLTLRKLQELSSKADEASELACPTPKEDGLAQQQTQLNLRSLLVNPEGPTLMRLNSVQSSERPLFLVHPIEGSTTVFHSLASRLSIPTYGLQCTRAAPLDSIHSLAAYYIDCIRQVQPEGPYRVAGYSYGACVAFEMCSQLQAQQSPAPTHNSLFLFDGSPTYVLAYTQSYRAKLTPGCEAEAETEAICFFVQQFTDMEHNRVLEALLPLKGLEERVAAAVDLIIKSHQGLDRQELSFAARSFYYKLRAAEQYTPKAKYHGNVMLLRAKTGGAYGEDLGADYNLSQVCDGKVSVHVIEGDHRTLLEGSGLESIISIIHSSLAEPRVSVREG
# Outline: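 Full-length human FASN (300 ng, in-house purified) in 100 mM KH2PO4 pH 7.5, 1 mM DTT converts 3H-acetyl-CoA plus malonyl-CoA to hydrophobic 3H-palmitate, captured by streptavidin imaging beads and read on LEADseeker at 610 nm after ≥24 h. Compounds tested 0.01–30 μM; data normalized to plate controls and fitted to 4-parameter logistic curves.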
# [3] = test system: LNCaP_Vancouver prostate cells; assay: In Vitro LNCaP Vancouver Prostate Cell Proliferation Assay in Lipid Reduced Medium; type: cell-based; settings: Prostate cell, 96 h, 10% lipid reduced serum, ATP-glow, read-out: pIC50 LNCaP_Vancouver prostate cell (converted)
# Method: LNCaP_Vancouver prostate cells were obtained from the Vancouver Prostate Cancer Centre.
# (§1) Compounds were tested in duplicate. After 96 h incubation at 37° C., 5% CO2 25 μl ATP-glow mix was added. The plate was incubated for 30 min at 37° C. and luminescence was measured with the Envision.
# (§2) pIC50 values were calculated as follows. Raw data generated by the instruments were normalized to % Controlmin values, which were calculated as: % Controlmin=100*(x−mLC)/(mHC−mLC),
# (§3) where mLC and mHC are the means of the low control wells and high control wells on the plate, after manual exclusion of outliers. The relation between the % Controlmin values and concentration was fitted to a 4-parameter logistic curve using a non-linear least squares regression method to determine the pIC50 value. Outlying data points were excluded manually to get a correct fit. […] The IC50 parameter was always determined by non-linear regression, but one or more of the other parameters may have been held fixed on a relevant input value, such as 0 for the bottom values.
# [4] = test system: PC-3M-Luc-C6 prostate cells; assay: In Vitro PC-3M-Luc-C6 Prostate Cell Proliferation Assay in Lipid Reduced Medium; type: cell-based; settings: Prostate cell, 96 h, read-out: pIC50 PC-3M-Luc-C6 prostate cell, 10% lipid reduced serum, 96 h, ATP-glow (converted)
# Method: PC-3M-Luc-C6 prostate cells were obtained from Xenogen Corporation. […] The cells were passaged twice a week.
# as §1, with “The next day 10 μl test compound/DMSO diluted in medium was added (3E-5M, 1E-5M, 3E-6M, 1E-6M, 3E-7M, 1E-7M, 3E-8M, 1E-8M final concentration). Compounds” for “Compounds”
# as §2, §3
# Chain of FASN Keto-reductase Domain (hFASN enzyme, full length) (P49327 whole entry, the tested form may be a part): as the sequence (P49327 whole entry) above
SMILES,FASN Keto-reductase Domain pIC50 [1],IC50 (A2780 ovarian cells) [µM],Human FASN pIC50 [2],IC50 [3] [nM],IC50 [4] [nM]
"CC1(C)N=C(c2ccc(-c3ccc4cnccc4c3)cc2F)N(C[C@@H]2CCN(C(=O)C3CC3)C2)C1=O [Compound 68, (R)-1-((1-(cyclopropanecarbonyl)pyrrolidin-3-yl)methyl)-2-(2-fluoro-4-(isoquinolin-6-yl)phenyl)-4,4-dimethyl-1H-imidazol-5(4H)-one]",7.32,> 10,7.26,–,–
"CC1(C)N=C(c2ccc(-c3ccc4cccc(F)c4c3)cc2F)N(C[C@@H]2CCN(C(=O)C3CC3)C2)C1=O [Compound 67, (R)-1-((1-(cyclopropanecarbonyl)pyrrolidin-3-yl)methyl)-2-(2-fluoro-4-(8-fluoronaphthalen-2-yl)phenyl)-4,4-dimethyl-1H-imidazol-5(4H)-one]",–,> 10,–,–,–
"CC1(C)N=C(c2ccc(-c3ccc4cc(F)ccc4c3)cc2F)N(C[C@@H]2CCN(C(=O)C3CC3)C2)C1=O [Compound 66, (R)-1-((1-(cyclopropanecarbonyl)pyrrolidin-3-yl)methyl)-2-(2-fluoro-4-(6-fluoronaphthalen-2-yl)phenyl)-4,4-dimethyl-1H-imidazol-5(4H)-one]",7.28,> 10,7.48,–,–
"CC1(C)N=C(c2ccc(-c3ccc4cccc(F)c4c3)cc2)N(CC2CN(C(=O)C3CC3)C2)C1=O [Compound 40, 1-((1-(cyclopropanecarbonyl)azetidin-3-yl)methyl)-2-(4-(8-fluoronaphthalen-2-yl)phenyl)-4,4-dimethyl-1H-imidazol-5(4H)-one]",6.46,–,6.75,–,–
"CC1(C)N=C(c2ccc(-c3ccc4cnccc4c3)cc2)N(C[C@@H]2CCN(C(=O)C3CC3)C2)C1=O [Compound 28, (R)-1-((1-(cyclopropanecarbonyl)pyrrolidin-3-yl)methyl)-2-(4-(isoquinolin-6-yl)phenyl)-4,4-dimethyl-1H-imidazol-5(4H)-one]",7.14,–,7.23,–,–
"CC1(C)N=C(c2ccc(-c3cccc4ncccc34)cc2)N(C[C@@H]2CCN(C(=O)C3CC3)C2)C1=O [Compound 31, (R)-1-((1-(cyclopropanecarbonyl)pyrrolidin-3-yl)methyl)-4,4-dimethyl-2-(4-(quinolin-5-yl)phenyl)-1H-imidazol-5(4H)-one]",6.33,–,6.72,–,–
"Cc1cc(-c2ccc3c(c2)ncn3C)ccc1C1=NC(C)(C)C(=O)N1CC1CN(C(=O)C2(C)CC2)C1 [Compound 83, 4,4-dimethyl-2-(2-methyl-4-(1-methyl-1H-benzo[d]imidazol-5-yl)phenyl)-1-((1-(1-methylcyclopropanecarbonyl)azetidin-3-yl)methyl)-1H-imidazol-5(4H)-one]",6.76,–,6.99,–,–
"Cc1cc(-c2ccc(-c3cnn(C)c3)cc2)ccc1C1=NC(C)(C)C(=O)N1C[C@@H]1CCN(C(=O)C2(C)CC2)C1 [Compound 84, (R)-4,4-dimethyl-2-(3-methyl-4′-(1-methyl-1H-pyrazol-4-yl)-[1,1′-biphenyl]-4-yl)-1-((1-(1-methylcyclopropanecarbonyl)pyrrolidin-3-yl)methyl)-1H-imidazol-5(4H)-one]",7.27,–,7.27,–,–
"CC1(C)N=C(c2ccc(-c3ccc4occc4c3)cc2)N(C[C@@H]2CCN(C(=O)C3(F)CC3)C2)C1=O [Compound 4, (R)-2-(4-(benzofuran-5-yl)phenyl)-1-((1-(1-fluorocyclopropanecarbonyl)pyrrolidin-3-yl)methyl)-4,4-dimethyl-1H-imidazol-5(4H)-one]",6.22,–,6.92,–,–
"CC1(C)N=C(c2ccc(-c3ccc(-c4ccncc4)cc3)cc2F)N(CC2CN(C(=O)C3CC3)C2)C1=O [Compound 22, 1-((1-(cyclopropanecarbonyl)azetidin-3-yl)methyl)-2-(3-fluoro-4′-(pyridin-4-yl)-[1,1′-biphenyl]-4-yl)-4,4-dimethyl-1H-imidazol-5(4H)-one]",6.57,–,6.80,–,–
"CC1(C)N=C(c2ccc(-c3c[nH]c4ccccc34)cc2F)N(C[C@@H]2CCN(C(=O)C3CC3)C2)C1=O [Compound 63, (R)-1-((1-(cyclopropanecarbonyl)pyrrolidin-3-yl)methyl)-2-(2-fluoro-4-(1H-indol-3-yl)phenyl)-4,4-dimethyl-1H-imidazol-5(4H)-one]",6.73,–,7.16,–,–
"Cn1cc(-c2ccc(-c3ccc(C4=NC(C)(C)C(=O)N4C[C@@H]4CCN(C(=O)C5(C)CC5)C4)c(F)c3)cc2)cn1 [Compound 74, (R)-2-(3-fluoro-4′-(1-methyl-1H-pyrazol-4-yl)-[1,1′-biphenyl]-4-yl)-4,4-dimethyl-1-((1-(1-methylcyclopropanecarbonyl)pyrrolidin-3-yl)methyl)-1H-imidazol-5(4H)-one]",7.38,–,7.26,–,–
"CC1(C)N=C(c2ccc(-c3ccc4[nH]ccc4c3)cc2)N(C[C@@H]2CCN(C(=O)C3CC3)C2)C1=O [Compound 1, (R)-2-(4-(1H-Indol-5-yl)phenyl)-1-((1-(cyclopropanecarbonyl)pyrrolidin-3-yl)methyl)-4,4-dimethyl-1H-imidazol-5(4H)-one]",6.86,–,7.32,–,–
"Cn1cc(-c2ccc(-c3ccc(C4=NC(C)(C)C(=O)N4C[C@@H]4CCN(C(=O)C5CC5)C4)c(F)c3)cc2)cn1 [Compound 45, (R)-1-((1-(cyclopropanecarbonyl)pyrrolidin-3-yl)methyl)-2-(3-fluoro-4-(1-methyl-1H-pyrazol-4-yl)-[1,1′-biphenyl]-4-yl)-4,4-dimethyl-1H-imidazol-5(4H)-one]",6.95,–,7.20,–,–
"Cc1cc(-c2ccc3c(c2)ncn3C)ccc1C1=NC(C)(C)C(=O)N1C[C@@H]1CCN(C(=O)C2(C)CC2)C1 [Compound 85, (R)-4,4-dimethyl-2-(2-methyl-4-(1-methyl-1H-benzo[d]imidazol-5-yl)phenyl)-1-((1-(1-methylcyclopropanecarbonyl)pyrrolidin-3-yl)methyl)-1H-imidazol-5(4H)-one]",6.80,–,7.10,–,–
"CC1(C)N=C(c2ccc(-c3ccc4cncnc4c3)cc2F)N(CC2CN(C(=O)C3CC3)C2)C1=O [Compound 43, 1-((1-(cyclopropanecarbonyl)azetidin-3-yl)methyl)-2-(2-fluoro-4-(quinazolin-7-yl)phenyl)-4,4-dimethyl-1H-imidazol-5(4H)-one]",5.93,–,6.11,2340,871
"CC1(C)N=C(c2ccc(-c3nc4ccccc4o3)cc2F)N(CC2CN(C(=O)C3CC3)C2)C1=O [Compound 52, 2-(4-(benzo[d]oxazol-2-yl)-2-fluorophenyl)-1-((1-(cyclopropanecarbonyl)azetidin-3-yl)methyl)-4,4-dimethyl-1H-imidazol-5(4H)-one]",5.77,–,6.25,–,–
